Results from patent US20250345328A1, “METHODS OF TREATING A RAS RELATED DISEASE OR DISORDER” (Revolution Medicines, Inc., priority 2023, published 2025).

Test system: human KRAS^G12C NSCLC NCI-H2122 xenograft tumors
Assay: NCI-H2122 xenograft, Compound A plus RMC-6291 combination
Format: in vivo
Conditions: immune-deficient mice; repeated daily oral administration
Experimental: The antitumor activity of Compound A in combination with RMC-6291 was evaluated using immune-deficient mice bearing human KRAS^G12C NSCLC NCI-H2122 xenograft tumors.

CCn1c(-c2cccnc2[C@H](C)OC)c2c3cc(ccc31)N1CCO[C@@H](C[C@H](NC(=O)[C@H](C(C)C)N(C)C(=O)C3(F)CCN(C(=O)C#CC(C)(C)N(C)C)CC3)C(=O)N3CCC[C@H](N3)C(=O)OCC(C)(C)C2)C1 [RMC-6291] was tested, and the Mean tumor regression was “mean tumor regressions were not achieved”.
